Test results reported in ChEMBL document CHEMBL1153336, “Cytotoxicity of cardenolides and cardenolide glycosides from Asclepias curassavica” (Bioorg Med Chem Lett, 2009).

Experiments:
Raji = test: Cytotoxicity against human Raji cells by MTT assay; type: functional, cell-based
HepG2 = test: Cytotoxicity against human HepG2 cells by MTT assay; type: functional, cell-based

Row | Compound | IC50 (Raji) [nM] | IC50 (HepG2) [nM]
1 | C[C@@H]1C[C@H](O)[C@]2(O)O[C@@H]3C[C@@]4(C=O)[C@@H](CC[C@@H]5[C@@H]4C[C@@H](O)[C@]4(C)[C@@H](C6=CC(=O)OC6)CC[C@]54O)C[C@H]3O[C@@H]2O1 | 1460 | 690
2 | CC(=O)O[C@@H]1C[C@]2(O)[C@@H]3CC[C@H]4C[C@H]5O[C@@H]6O[C@H](C)C[C@H](O)[C@]6(O)O[C@@H]5C[C@]4(C=O)[C@H]3CC[C@]2(C)[C@H]1C1=CC(=O)OC1 | 3540 | 1340
3 | CC(=O)O[C@H]1C[C@@H](C)O[C@H]2O[C@@H]3C[C@@H]4CC[C@@H]5[C@H](CC[C@]6(C)[C@@H](C7=CC(=O)OC7)[C@H](OC(C)=O)C[C@]56O)[C@@]4(C=O)C[C@H]3O[C@]21O | 3210 | 760
4 | CC(=O)O[C@H]1C[C@@H](C)O[C@H]2O[C@@H]3C[C@@H]4CC[C@@H]5[C@H](CC[C@]6(C)[C@@H](C7=CC(=O)OC7)[C@H](O)C[C@]56O)[C@@]4(C=O)C[C@H]3O[C@]21O | 50 | 3030
5 | CO[C@]12CC[C@@]3(CO1)[C@@H](CC[C@@H]1[C@@H]3C[C@@H](O)[C@]3(C)[C@@H](C4=CC(=O)OC4)CC[C@]13O)C2 | 64700 | 89900
6 | COc1cc(/C=C/C(=O)OC[C@H]2O[C@@H](O[C@H]3CC[C@@]4(C)[C@@H](CC[C@@H]5[C@@H]4CC[C@]4(C)[C@@H](C6=CC(=O)OC6)CC[C@]54O)C3)[C@H](O)[C@@H](O)[C@@H]2O)ccc1O | 41100 | > 100000
7 | C[C@]12[C@H](O)C[C@H]3[C@@H](CC[C@H]4C[C@@H](O)CC[C@@]43CO)[C@@]1(O)CC[C@@H]2C1=CC(=O)OC1 | 14600 | 5170
8 | CC(=O)O[C@H]1C[C@@H](C)O[C@H]2O[C@@H]3C[C@@H]4CC[C@@H]5[C@H](CC[C@]6(C)[C@@H](C7=CC(=O)OC7)CC[C@]56O)[C@@]4(C=O)C[C@H]3O[C@]21O [ASCLEPIN] | 20 | 20
9 | C[C@]12CC[C@H]3[C@@H](CC[C@H]4C[C@@H](O)[C@H](O)C[C@@]43C=O)[C@@]1(O)CC[C@@H]2C1=CC(=O)OC1 [CALOTROPAGENIN] | 24300 | 56600
10 | C[C@@H]1C[C@H](O)[C@]2(O)O[C@@H]3C[C@@]4(C=O)[C@@H](CC[C@@H]5[C@@H]4CC[C@]4(C)[C@@H](C6=CC(=O)OC6)CC[C@]54O)C[C@H]3O[C@@H]2O1 [CALOTROPIN] | 20 | 40
11 | C[C@]12CC[C@H]3[C@@H](CC[C@H]4C[C@@H](O)CC[C@@]43CO)[C@@]1(O)CC[C@@H]2C1=CC(=O)OC1 [COROGLAUCIGENIN] | 140 | 6700
12 | C[C@]12CC[C@H](O[C@@H]3O[C@H](CO)[C@@H](O)[C@H](O)[C@H]3O)C[C@@H]1CC[C@@H]1[C@@H]2CC[C@]2(C)[C@@H](C3=CC(=O)OC3)CC[C@]12O [DESGLUCOUZARIN] | 750 | 8530
13 | C[C@@H]1CC(=O)[C@]2(O)O[C@@H]3C[C@@]4(C=O)[C@@H](CC[C@@H]5[C@@H]4CC[C@]4(C)[C@@H](C6=CC(=O)OC6)CC[C@]54O)C[C@H]3O[C@@H]2O1 [USCHARIDIN] | 20 | 380
